Entries after “also recorded” stand apart in the source; their conditions may differ.
Key:
MDA-MB-231 cells [1] = experiment: Trypan blue staining and cell counting (cell viability) under ROCK inhibitor treatment; assay type: cell-based, human; details: 2 hrs at 37° C., 1-50 μM
Description: ROCK Inhibition. Cells were detached from cell culture flasks using trypsin-EDTA and incubated at 37° C. for 2 hrs in media containing ROCK inhibitor Y-27632 (Sigma-Aldrich, Inc.) at concentrations ranging from 1-50 μM. […] Cells were cultured in drugged media for one hr on well plates containing Alexa Fluor 647-labeled ephrin-A1 functionalized supported bilayers. Cells were fixed, stained and imaged with epifluorescence microscopy as described above.

MDA-MB-231 cells [2] = experiment: ROCK inhibition: EphA2-ephrin-A1 radial transport on ephrin-A1 functionalized supported bilayers; assay type: cell-based, human; details: inhibitor 1 to 50 μM, normalized to untreated samples
Description: Radial Transport Analysis. Bright field microscopy was used to determine the area occupied by each cell. The corresponding areas in the fluorescence channel were then analyzed using the Radial Profile plugin from ImageJ, yielding a plot of normalized fluorescence intensities versus radial distance from the cell center. Plots were then normalized for cell size and averaged. Least squares analysis was then performed on the average normalized radial distribution using Origin 7.0 (OriginLab, Northampton, Mass.), and the slope of the calculated line was used as a score for propensity to radially transport ephrin-A1. ROCK Inhibition. Cells were detached from cell culture flasks using trypsin-EDTA and incubated at 37° C. for 2 hrs in media containing ROCK inhibitor Y-27632 (Sigma-Aldrich, Inc.) at concentrations ranging from 1-50 μM. […] Cells were cultured in drugged media for one hr on well plates containing Alexa Fluor 647-labeled ephrin-A1 functionalized supported bilayers. Cells were fixed, stained and imaged with epifluorescence microscopy as described above.

MDA-MB-231 cells [3] = details: binary mixture with ephrin-A1, 1 hr after plating
Description: Surface Functionalization. After lipid bilayer deposition, substrates were incubated for 45 min with a 0.01% bovine serum albumin (BSA; Sigma-Aldrich, Inc.) solution to minimize non-specific protein adsorption. The supported membranes were then incubated with a 17 nM solution of streptavidin (Fisher Scientific, Pittsburgh, Pa.) for 45 minutes. For experiments that quantify protein surface density, streptavidin conjugated to Alexa Fluor 488 (Invitrogen Corp.) was substituted for the unlabeled protein. The supported membrane was then thoroughly rinsed and substrates were incubated for 45 min with a 50 nM solution of ephrin-A1 (R&D Systems, Minneapolis, Minn.), which had been biotinylated (Fisher Scientific) and conjugated to Alexa Fluor 594 or Alexa Fluor 647 (both from Invitrogen Corp.).
Optical Microscopy. We used Nikon Eclipse TE2000-E and TE300 inverted microscopes with mercury arc lamps for epifluorescence illumination and 12 V, 100 W halogen lamps for bright field illumination. Total internal reflection fluorescence (TIRF) illumination was provided using a krypton/argon ion laser for 647 nm excitation, and an argon ion laser (Stabilite 2018 and Model 177 respectively, both from Spectra-Physics, Mountain View, Calif.) for 488 nm excitation. […]

Molecule | cell viability (Trypan blue staining and cell counting) (MDA-MB-231 cells [1]) | Eph-ephrin radial transport (capacity to transport EphA2-ephrin-A1 complexes to the center of the cell-supported membrane junction) (MDA-MB-231 cells [2]) | EphA2 organization with increasing RGD peptide density (MDA-MB-231 cells [3]) | cell-supported membrane contact area (RICM) with increasing RGD peptide density (MDA-MB-231 cells [3])
C[C@@H](N)[C@H]1CC[C@H](C(=O)Nc2ccncc2)CC1 [Y-27632] | no adverse effects | dose-dependent decrease; also recorded: dosage-dependent decrease | – | –
[Arg-Gly-Asp-d-Phe-Lys(Biotin-PEG-PEG)] [cyclic RGD peptide] | – | – | no change in EphA2 organization | progressively larger

Reference: patent US9708665B2, “Spatial biomarker of disease and detection of spatial organization of cellular receptors” (The Regents of the University of California, priority 2009, dated 2017)
